Data taken from ChEMBL document CHEMBL1201862, “PubChem BioAssay data set” (2004).
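Briefly, cells in 96-well plates were exposed to five compound concentrations for 48 h, and endpoints were estimated by linear interpolation. GI50 = concentration required for 50% inhibition of growth.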 Calls of active or inactive are those of the source. Rule as the data show it: active = GI50 up to about 1.1 µM and inactive = higher.

Legend:
Assay in all cases: NCI anticancer screen, dose series, 48 h
[1] = system: MDA-N
[2] = system: UACC-257
[3] = system: CAKI-1
[4] = system: A549
[5] = system: OVCAR-3
[6] = system: SN12C
[7] = system: T47D
[8] = system: NCI-H226
[9] = system: LOX IMVI
[10] = system: SF-268
[11] = system: SK-OV-3
[12] = system: SNB-19
[13] = system: HCC 2998
[14] = system: M14
[15] = system: PC-3
[16] = system: SK-MEL-2
[17] = system: MDA-MB-231
[18] = system: RXF 393

Measured: GI50

Cc1cc(Oc2cnc(=O)[nH]c2)cs1
inactive: [1] > 100 µM | [2] > 100 µM | [3] > 100 µM | [4] > 100 µM | [5] > 100 µM | [6] > 100 µM | [7] > 100 µM | [8] > 100 µM | [9] > 100 µM | [10] > 100 µM | [11] > 100 µM | [12] > 100 µM | [13] > 100 µM | [14] > 100 µM | [15] > 100 µM | [16] > 100 µM | [17] > 100 µM

CN(C)C(=S)C(Cl)(c1ccccc1)c1ccccc1
inactive: [1] 47.6 µM | [2] > 100 µM | [3] > 100 µM | [4] 59.8 µM | [5] 82 µM | [6] 43.7 µM | [7] 22.4 µM | [8] 53.7 µM | [9] 34.5 µM | [10] > 100 µM | [11] > 100 µM | [12] > 100 µM | [13] > 100 µM | [14] > 100 µM | [15] 35.6 µM | [16] 27.4 µM | [17] 59.7 µM

O=C(O)C1CCCN1Cc1ccc2c(c1)OCO2 (stereo not drawn)
inactive: [1] > 100 µM | [2] > 100 µM | [3] > 100 µM | [4] > 100 µM | [5] > 100 µM | [6] > 100 µM | [7] > 100 µM | [18] > 100 µM | [8] > 100 µM | [9] > 100 µM | [10] > 100 µM | [11] > 100 µM | [12] > 100 µM | [14] > 100 µM | [15] > 100 µM | [16] > 100 µM | [17] > 100 µM

CC(C)CCCC(C)[C@H]1CCC2[C@@H]3CCC4Cc5nc6c(nc5C[C@]4(C)C3CC[C@@]21C)CC1CC[C@@H]2C(CC[C@@]3(C)C2CC[C@@H]3C(C)CCCC(C)C)[C@@]1(C)C6 (stereo partly drawn)
inactive: [1] > 100 µM | [2] > 100 µM | [4] > 100 µM | [5] > 100 µM | [6] > 100 µM | [7] > 100 µM | [18] > 100 µM | [8] > 100 µM | [9] > 100 µM | [10] > 100 µM | [11] > 100 µM | [12] > 100 µM | [14] > 100 µM | [15] > 100 µM | [16] > 100 µM | [17] > 100 µM

CCCOC(=O)C1C2CCC(O2)C1C(=O)O (stereo not drawn)
inactive: [1] > 100 µM | [2] > 100 µM | [3] > 100 µM | [4] > 100 µM | [5] > 100 µM | [6] > 100 µM | [7] > 100 µM | [18] > 100 µM | [8] > 100 µM | [9] > 100 µM | [10] > 100 µM | [11] 61 µM | [12] > 100 µM | [14] > 100 µM | [15] > 100 µM | [16] > 100 µM | [17] > 100 µM

CCCCCCCC(=O)NS(=O)(=O)c1ccccc1
inactive: [1] > 100 µM | [3] > 100 µM | [4] > 100 µM | [5] > 100 µM | [7] > 100 µM | [9] > 100 µM | [10] > 100 µM | [11] > 100 µM | [12] > 100 µM | [13] > 100 µM | [14] 77.1 µM | [15] > 100 µM | [16] > 100 µM | [17] > 100 µM
